Here are results for 3 molecules from patent US4801607A, “Antiviral furanoditerpenoids” (Harbor Branch Oceanographic Institution, Inc., priority 1987, dated 1989).

For data set [1], the system named is P388 mouse leukemia cells. In words: P388 mouse leukemia cell assay. As to conditions: 48 hours. In kind it is cell-based. Here is the method:
P388 mouse leukemia cells are grown in Dulbecco's minimum essential medium with Earle's salts (MEM) with 10% horse serum, 4 mM glutamine, and 20 ug/ml gentamicin (Biologos, Inc.). Cells are incubated in 10% CO2 and subcultured 2 times per week. 1. Add compound to each well of a 24-well plate or tube and allow solvent to evaporate to dryness. 2. Add 2 ml (1.2×10^5) cells to each well or tube and mix. 3. Incubate in 10% CO2 at 37° for 48 hours. 4. Read plates with an inverted microscope, scoring activity from 1+ to 4+ as follows: ND (not detectable),>90%; 1+, 75-90%; 2+, 50-74%; 3+, 25-49%; 4+, <25% of control growth. Cell counts are performed on each tube and results are reported as percent of control. Positive control--Vinblastine or Vincristine in aqueous solution.

The test system of data set [2] is HSV-1. In words: Antiviral disc assay, HSV-1 in CV-1 cells. In kind it is cell-based, herpes simplex type 1.
Data set [3] relates to CV-1 cells. In words: Cytotoxicity in the antiviral disc assay.
The test system of data set [4] is HCT-8 human colon tumor cells. In words: Human tumor cell line assay, HCT-8 colon. Format: cell-based. As to conditions: 120 hours, read-out: Antitumor activity, HCT-8. On the procedure:
(§1) HCT-8 human colon tumor cells are grown in RPM1 1640 medium (GIBCO). A-549 human lung carcinoma cells are cultured in Dulbecco medium (Biologos, Inc.). MCF-7, MDA-MB 231 and T47D human breast carcinoma cells are grown in Eagles MEM medium. All media are supplemented with 10% fetal bovine serum and contain 50 μg/ml gentamicin. All human tumor cell lines are incubated in 5% CO2 at 37° and subcultured once a week. The seeding levels are 350,000 MCF-7 cells, 60,000 HCT-8 cells and 300,000 A-549 cells per T25 flask.
(§2) 2. Incubate in 5% CO2 for 48 hours.
(§3) 3. Add compound (50 μg)to each well and incubate for an additional 120 hours.
(§4) 4. Discard medium and stain with methylene blue (HCT-8) or crystal violet (A549 and MCF-7) for 30 minutes.
(§5) 5. Compare cell density of drug-treated well with that of the control (no drug added) as follows: ND (not detectable), >90%; 1+, 75-90%; 2+, 50-74%; 3+, 25-49%, 4+, <25% of control growth.

Data set [5] deals with MDA-MB 231 human breast carcinoma cells. In words: Human tumor cell line assay, MDAMB mammary. In kind it is cell-based. The following applies: 120 hours, read-out: Antitumor activity, MDAMB. Here is the method: as §1, §2, §3, §4, §5
In data set [6] the test system is A-549 human lung carcinoma cells. In words: Human tumor cell line assay, A-549 lung. The following applies: 120 hours, read-out: Antitumor activity, A-549. Format: cell-based. On the procedure:
as §1, §2, §3, §4, §5

Data set [7] deals with VSV. In kind it is cell-based, vesicular stomatitis virus.
The test system of data set [8] is human tumor cell lines. In words: Human tumor cell line assay (cell lines together). Format: cell-based. The following applies: 120 h, in concentrations of at least 10 μg/ml, read-out: concentrations with good activity against human tumor cell lines. Here is the method:
as §1, §2, §3, §4, §5

Values after ≈ are worked out from the molar mass of the structure shown. Like-named read-outs stand apart in the source and are kept apart here. Marks after values point to notes of the source that are not given here.

Consider `C[C@]12C[C@@H](O)C(=O)[C@](C)(CO)[C@@H]1CC[C@@]1(C)c3cocc3CC[C@H]21` [Composition 1, isospongiadiol], for which, in data set [1], the IC50 (commonly the concentration at which inhibition is half-maximal) was determined as 5 µg/mL (≈ 15 µM). The “HSV-1 Activity” value in data set [2] (2 μg/disk) is listed as “++”; in data set [2] (20 μg/disk), “+++”. The Cytotoxicity in data set [3] (2 μg/disk) and in data set [3] (20 μg/disk) was 0* throughout. For the same molecule, the activity at 1 µg/mL in data set [4] (dose 1 μg/ml) was above 90%; in data set [5] (dose 1 μg/ml) it was above 90%; in data set [6] (A549, dose 1 μg/ml), above 90%. Further, the activity at 10 µg/mL in data set [4] (dose 10 μg/ml) was 25 to 49%; in data set [5] (dose 10 μg/ml), 25 to 49%; in data set [6] (A549, dose 10 μg/ml) it was 25 to 49%. In addition, the activity at 50 µg/mL in data set [4] (dose 50 μg/ml) was below 25%; in data set [5] (dose 50 μg/ml) it was below 25%; in data set [6] (A549, dose 50 μg/ml), below 25%. In addition, the “VSV Activity” value in data set [7] (20 μg/disk) is “+”. In data set [8], the minimal effective concentration was at least 10 µg/mL.

The molecule `C[C@]12CC(=O)[C@@H](O)[C@](C)(CO)[C@@H]1CC[C@@]1(C)c3cocc3CC[C@H]21` [Composition 2, spongiadiol] returned an IC50 in data set [1] of 0.5 µg/mL (≈ 1.5 µM). Further, the “HSV-1 Activity” value in data set [2] (0.5 μg/disk) is “+++”. The “VSV Activity” value in data set [7] (0.5 μg/disk) is recorded as “++”; in data set [7] (1 μg/disk) it was “+++”.

In data set [1], `C[C@]12CC(=O)[C@H](O)[C@](C)(CO)[C@@H]1CC[C@@]1(C)c3cocc3CC[C@H]21` [Composition 3, epispongiadiol] registered an IC50 of 8 µg/mL (≈ 24.1 µM). The “HSV-1 Activity” value is listed as “+” in data set [2] (6.25 μg/disk) and “++” in data set [2] (12.5 μg/disk). In addition, the “VSV Activity” value in data set [7] (20 μg/disk) was “+”.
